Our source for the IC50 values is BindingDB's records for doi:10.7270/Q2XP773S (n/a, 1996).

Chain of Histamine H2 receptor (P47747 whole entry): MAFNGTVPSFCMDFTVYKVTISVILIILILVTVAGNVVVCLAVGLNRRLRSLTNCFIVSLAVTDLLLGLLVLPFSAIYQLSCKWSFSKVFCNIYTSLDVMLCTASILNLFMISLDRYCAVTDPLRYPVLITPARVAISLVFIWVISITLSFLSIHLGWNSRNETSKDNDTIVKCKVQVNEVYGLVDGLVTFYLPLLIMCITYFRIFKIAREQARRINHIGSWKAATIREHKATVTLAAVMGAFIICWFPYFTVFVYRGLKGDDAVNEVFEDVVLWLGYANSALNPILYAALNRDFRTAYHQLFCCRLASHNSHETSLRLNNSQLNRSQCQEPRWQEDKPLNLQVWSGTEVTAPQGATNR

This experiment addresses Histamine H2 receptor (Cavia porcellus, UniProt P47747). The experiment in a line: ChEBML_85064. The source says:
Histamine H2 receptor antagonistic activity
Usually IC50 stands for the concentration at which inhibition is half-maximal. Read a high IC50 as lower potency. Compound `C/N=c1\c(O)c(O)c1=NC/C=C\COc1csc(CN2CCCCC2)c1` showed a concentration for half-maximal inhibition (IC50) of 1830 nM. Consider `CN(C)Cc1cc(OC/C=C\CN=c2c(O)c(O)c2=N)cs1`, for which the IC50 turned out to be 684 nM. Against the preceding compound, the IC50 is about 2.7-fold lower. With `COCC/N=c1\c(O)c(O)c1=NC/C=C\COc1csc(CN2CCCCC2)c1`, the IC50 is 1140 nM. As for `CC(C)/N=c1\c(O)c(O)c1=NC/C=C\COc1csc(CN2CCCCC2)c1`, the figure is 1930 nM; as for `CN(C)CC/N=c1\c(O)c(O)c1=NC/C=C\COc1csc(CN2CCCCC2)c1`, 809 nM.
